Where a name gives a salt, the structure may show the parent alone. Read-outs that look alike come from different tables or passages of the source.
Legend:
TEC = target: T1, TEC (Homo sapiens, UniProt P42680); test: KINOMEscan competition binding assay, TEC; settings: read-out: KINOMEscan percentage of control, TEC
T1 sequence (P42680 1-631): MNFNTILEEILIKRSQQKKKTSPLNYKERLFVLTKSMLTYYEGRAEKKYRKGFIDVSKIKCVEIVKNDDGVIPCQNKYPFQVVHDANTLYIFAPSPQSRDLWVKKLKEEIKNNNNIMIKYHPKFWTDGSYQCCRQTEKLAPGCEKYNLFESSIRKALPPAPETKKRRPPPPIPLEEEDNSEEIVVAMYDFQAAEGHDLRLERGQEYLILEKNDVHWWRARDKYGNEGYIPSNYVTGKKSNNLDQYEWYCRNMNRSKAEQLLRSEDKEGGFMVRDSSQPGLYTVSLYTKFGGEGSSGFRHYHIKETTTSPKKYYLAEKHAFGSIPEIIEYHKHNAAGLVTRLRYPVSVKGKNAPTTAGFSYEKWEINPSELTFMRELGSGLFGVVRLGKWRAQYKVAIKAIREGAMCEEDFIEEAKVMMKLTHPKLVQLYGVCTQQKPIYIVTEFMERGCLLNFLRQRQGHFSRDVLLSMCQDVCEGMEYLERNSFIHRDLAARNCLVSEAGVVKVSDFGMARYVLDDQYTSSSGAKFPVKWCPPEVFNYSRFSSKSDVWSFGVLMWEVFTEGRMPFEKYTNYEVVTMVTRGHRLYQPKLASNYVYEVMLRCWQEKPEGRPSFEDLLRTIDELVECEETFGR

JAK3 = target: T2, JAK3 (Homo sapiens, UniProt P52333); test: KINOMEscan competition binding assay, JAK3; settings: read-out: KINOMEscan percentage of control, JAK3
T2 construct: purchased DiscoverX (KINOMEscan service)
T2 sequence (P52333 811-1124 limits assumed): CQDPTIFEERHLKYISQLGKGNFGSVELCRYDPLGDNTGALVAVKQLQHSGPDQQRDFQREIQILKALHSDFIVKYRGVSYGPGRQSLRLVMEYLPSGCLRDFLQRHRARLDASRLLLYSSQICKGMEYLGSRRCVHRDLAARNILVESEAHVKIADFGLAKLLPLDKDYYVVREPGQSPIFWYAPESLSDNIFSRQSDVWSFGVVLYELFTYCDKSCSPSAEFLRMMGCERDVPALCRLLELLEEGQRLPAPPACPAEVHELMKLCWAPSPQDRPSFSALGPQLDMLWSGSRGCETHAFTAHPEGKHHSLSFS

BLK = BLK (Homo sapiens, UniProt P51451); test: KINOMEscan competition binding assay, BLK; settings: read-out: KINOMEscan percentage of control, BLK
BLK, sequence (P51451 whole entry): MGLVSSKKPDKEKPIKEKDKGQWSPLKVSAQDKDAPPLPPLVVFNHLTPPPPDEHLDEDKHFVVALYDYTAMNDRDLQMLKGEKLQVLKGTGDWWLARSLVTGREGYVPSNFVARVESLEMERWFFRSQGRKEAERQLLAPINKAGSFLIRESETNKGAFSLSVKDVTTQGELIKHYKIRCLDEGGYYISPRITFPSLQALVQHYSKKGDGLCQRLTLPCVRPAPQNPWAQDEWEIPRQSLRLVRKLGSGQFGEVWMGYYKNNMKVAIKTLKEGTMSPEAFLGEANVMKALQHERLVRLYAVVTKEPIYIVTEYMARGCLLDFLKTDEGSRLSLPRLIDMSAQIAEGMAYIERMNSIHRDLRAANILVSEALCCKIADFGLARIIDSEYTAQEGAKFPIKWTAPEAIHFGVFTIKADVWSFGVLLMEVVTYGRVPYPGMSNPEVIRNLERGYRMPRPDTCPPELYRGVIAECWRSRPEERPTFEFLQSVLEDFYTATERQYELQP

ITK = target: T3, ITK (Homo sapiens, UniProt Q08881); test: KINOMEscan competition binding assay, ITK; set-up: purchased DiscoverX (KINOMEscan service); settings: read-out: KINOMEscan percentage of control, ITK
T3 sequence (Q08881 1-620): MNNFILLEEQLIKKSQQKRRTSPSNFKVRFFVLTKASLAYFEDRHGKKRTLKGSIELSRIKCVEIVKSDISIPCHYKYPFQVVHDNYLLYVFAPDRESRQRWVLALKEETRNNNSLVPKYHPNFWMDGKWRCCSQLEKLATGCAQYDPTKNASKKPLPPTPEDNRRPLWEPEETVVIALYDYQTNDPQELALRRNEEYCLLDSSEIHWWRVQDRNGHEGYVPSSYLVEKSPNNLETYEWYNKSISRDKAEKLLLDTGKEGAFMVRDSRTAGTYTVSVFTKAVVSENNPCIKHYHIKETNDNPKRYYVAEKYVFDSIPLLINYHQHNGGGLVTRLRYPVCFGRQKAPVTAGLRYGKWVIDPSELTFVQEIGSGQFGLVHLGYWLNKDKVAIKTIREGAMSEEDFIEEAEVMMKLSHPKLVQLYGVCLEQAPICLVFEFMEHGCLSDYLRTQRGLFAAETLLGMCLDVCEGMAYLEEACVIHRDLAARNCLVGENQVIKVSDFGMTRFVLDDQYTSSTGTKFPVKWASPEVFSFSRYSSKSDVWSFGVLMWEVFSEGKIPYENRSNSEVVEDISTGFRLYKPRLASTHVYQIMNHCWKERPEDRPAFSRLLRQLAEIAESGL

MKK7 = target: T4, MKK7 (Homo sapiens, UniProt O14733); test: KINOMEscan competition binding assay, MKK7; settings: read-out: KINOMEscan percentage of control, MKK7
T4 construct: purchased DiscoverX (KINOMEscan service)
T4 sequence (O14733 1-419): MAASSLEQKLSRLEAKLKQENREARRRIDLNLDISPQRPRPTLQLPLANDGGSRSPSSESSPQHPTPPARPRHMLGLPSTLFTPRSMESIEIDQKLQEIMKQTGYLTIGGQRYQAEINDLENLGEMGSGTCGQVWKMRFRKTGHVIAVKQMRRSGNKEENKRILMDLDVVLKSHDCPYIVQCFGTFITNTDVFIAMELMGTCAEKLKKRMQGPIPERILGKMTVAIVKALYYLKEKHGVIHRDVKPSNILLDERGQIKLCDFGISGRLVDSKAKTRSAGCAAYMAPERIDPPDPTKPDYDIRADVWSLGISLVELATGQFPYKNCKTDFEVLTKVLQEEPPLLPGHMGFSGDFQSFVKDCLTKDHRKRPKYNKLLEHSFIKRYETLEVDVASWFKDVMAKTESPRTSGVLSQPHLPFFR

C481S BTK = C481S BTK (Homo sapiens, UniProt Q06187, C481S); test: In vitro kinase inhibition, recombinant C481S BTK, 10 μM ATP
C481S BTK, sequence (Q06187 whole entry C481S): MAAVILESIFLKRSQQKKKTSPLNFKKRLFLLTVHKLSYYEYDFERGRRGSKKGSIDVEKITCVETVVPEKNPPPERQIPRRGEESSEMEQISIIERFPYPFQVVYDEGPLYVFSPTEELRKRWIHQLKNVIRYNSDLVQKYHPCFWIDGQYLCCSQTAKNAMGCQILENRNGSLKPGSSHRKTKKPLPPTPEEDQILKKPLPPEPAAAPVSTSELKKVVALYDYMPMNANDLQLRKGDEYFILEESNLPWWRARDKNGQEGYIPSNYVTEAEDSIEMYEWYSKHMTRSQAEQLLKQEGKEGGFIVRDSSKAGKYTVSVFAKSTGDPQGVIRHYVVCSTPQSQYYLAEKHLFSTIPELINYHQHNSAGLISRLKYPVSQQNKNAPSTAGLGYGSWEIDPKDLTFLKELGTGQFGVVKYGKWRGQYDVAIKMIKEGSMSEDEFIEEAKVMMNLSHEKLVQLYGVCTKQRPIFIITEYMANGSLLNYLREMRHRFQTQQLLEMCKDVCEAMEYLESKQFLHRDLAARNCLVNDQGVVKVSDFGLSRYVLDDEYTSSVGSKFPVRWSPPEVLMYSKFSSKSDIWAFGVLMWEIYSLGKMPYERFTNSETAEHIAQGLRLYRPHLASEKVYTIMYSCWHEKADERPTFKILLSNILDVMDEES

HER3 = target: T5, HER3 (Homo sapiens, UniProt P21860); test: HER3/ERBB3 degradation (western blot, OVCAR8 cells); type: cell-based
T5 construct: endogenous in cells; host or cells: OVCAR8
T5 sequence (P21860 20-1342): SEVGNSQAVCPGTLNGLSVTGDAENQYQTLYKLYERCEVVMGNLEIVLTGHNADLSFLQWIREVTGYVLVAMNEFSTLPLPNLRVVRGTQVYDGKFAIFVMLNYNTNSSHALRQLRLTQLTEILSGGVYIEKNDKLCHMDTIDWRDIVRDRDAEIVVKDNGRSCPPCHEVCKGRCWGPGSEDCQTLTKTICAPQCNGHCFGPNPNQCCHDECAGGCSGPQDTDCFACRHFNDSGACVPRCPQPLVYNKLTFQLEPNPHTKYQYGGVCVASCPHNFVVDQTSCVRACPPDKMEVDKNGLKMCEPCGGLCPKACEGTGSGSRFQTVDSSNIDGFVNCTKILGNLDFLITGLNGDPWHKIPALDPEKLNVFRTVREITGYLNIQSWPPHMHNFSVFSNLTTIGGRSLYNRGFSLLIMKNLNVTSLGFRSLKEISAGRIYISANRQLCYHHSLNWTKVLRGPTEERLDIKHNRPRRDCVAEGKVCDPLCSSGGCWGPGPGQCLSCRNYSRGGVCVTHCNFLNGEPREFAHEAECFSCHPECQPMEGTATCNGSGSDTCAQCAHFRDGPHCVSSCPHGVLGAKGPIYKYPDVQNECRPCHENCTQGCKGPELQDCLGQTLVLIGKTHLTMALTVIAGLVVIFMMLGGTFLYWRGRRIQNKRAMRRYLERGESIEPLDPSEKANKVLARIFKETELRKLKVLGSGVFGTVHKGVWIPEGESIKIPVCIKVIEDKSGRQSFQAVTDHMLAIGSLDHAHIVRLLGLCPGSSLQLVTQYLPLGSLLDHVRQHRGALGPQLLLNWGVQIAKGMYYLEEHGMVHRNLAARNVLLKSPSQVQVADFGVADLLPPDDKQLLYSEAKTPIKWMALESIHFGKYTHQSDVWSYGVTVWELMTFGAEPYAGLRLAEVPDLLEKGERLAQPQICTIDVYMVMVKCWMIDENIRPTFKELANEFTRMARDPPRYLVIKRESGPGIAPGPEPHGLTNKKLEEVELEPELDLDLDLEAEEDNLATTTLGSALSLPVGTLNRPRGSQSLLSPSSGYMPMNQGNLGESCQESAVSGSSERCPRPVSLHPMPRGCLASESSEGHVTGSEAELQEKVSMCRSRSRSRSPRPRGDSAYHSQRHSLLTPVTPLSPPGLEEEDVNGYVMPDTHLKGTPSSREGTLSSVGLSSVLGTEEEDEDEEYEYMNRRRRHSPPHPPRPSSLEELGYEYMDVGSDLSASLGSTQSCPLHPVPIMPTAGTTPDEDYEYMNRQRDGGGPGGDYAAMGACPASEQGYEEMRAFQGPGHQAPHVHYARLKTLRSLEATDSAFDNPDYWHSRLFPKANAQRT
Description: FIG. 10 illustrates a Western blot of Compound 102-related degradation of ERBB3.
In various embodiments, treatment with PROTAC was performed in one of two ways: 1) For experiments involving >16 h exposure to compound, a 1000× stock was added to cells followed by gentle agitation; 2) For shorter treatments, a 2× stock was added to an equal volume of cells to ensure uniform drug exposure. For immortalized cell lines, 2×10^6 cells per treatment condition were collected and washed once with ice cold PBS (IX), followed by lysis in buffer containing 20 mM Tris [pH 8.0], 0.25% sodium deoxycholate, 1% Triton X-100, supplemented with protease (Roche) and phosphatase inhibitors (10 mM NaF, 2 mM Na3VO4, 10 mM β-glycerophosphate, 10 mM Na-pyrophosphate). Lysates were spun at 15,000×g for 10 min at 4° C. and supernatant was quantified for total protein content using the Pierce BCA Protein Assay (Thermo Fisher Scientific). 30 μg of protein was loaded onto 12% SDS-PAGE gels or 4-15% Mini-PROTEAN TGX precast gradient gels (Bio-Rad), transferred onto nitrocellulose membranes, and probed with the specified primary antibodies overnight with rocking at 4° C. in 1×TBS-T containing 5% non-fat milk.
(§1) Either anti-rabbit or anti-mouse HRP-conjugated secondary antibodies (Pierce) were incubated with the membranes for 1 h at room temperature at 1:10,000 dilutions in 5% non-fat milk in IX TBS-T. Imaging was performed using the ECL Prime chemiluminescent western blot detection reagents (Amersham) followed by visualization with the Bio-Rad ChemiDoc imaging instrument. All western blots were subsequently processed and quantified using the accompanying Bio-Rad Image Lab software. Primary antibodies used were: Anti-actin antibody (Cat. #MA 1-744) purchased from ThermoFisher Scientific; anti-BTK (Cat. #8547), anti-pBTK (Y223, Cat. #5082), anti-ITK (Cat. #2380), anti-GAPDH (Cat. #5179), anti-IKZF1 (Cat. #9034), and anti-IKZF3 (Cat. #15103) antibodies purchased from Cell Signaling Technology. All antibodies were used at 1:1,000 dilutions in 5% non-fat milk in 1×TBS-Tween (TBS-T) or Blotto blocker (Thermo Scientific) unless otherwise noted in supplier specifications.

BTK = BTK (Homo sapiens, UniProt Q06187); test: BTK degradation in NAMALWA cells (immunoblot); type: cell-based; set-up: host or cells: NAMALWA; settings: NAMALWA cells; for DC50: concentration needed to degrade 50% of the total pool of BTK; for Max: maximal BTK degradation
BTK, sequence (Q06187 whole entry): as the sequence (Q06187 whole entry C481S) above, with S481C counted along it
Description: NAMALWA and Jurkat cell lines were purchased from ATCC and cultured according to supplier guidelines at 37° C. […] Wild-type and C481S BTK XLA cell lines were cultured as previously described (39). Written, informed consent was obtained prior to the collection of cells from CLL patients using the IWCLL2008 criteria. Isolation of mononuclear cells from peripheral blood was prepared using density gradient centrifugation. B-cells were then negatively selected ([…] Technologies). […] They were maintained at 37° C. in 5% CO2.
Lysates were spun at 15,000×g for 10 min at 4° C. and supernatant was quantified for total protein content using the Pierce BCA Protein Assay (Thermo Fisher Scientific).
as §1, with “Primary antibodies used were: Anti-actin antibody (Cat. #MA 1-744) purchased from ThermoFisher Scientific; anti-BTK (Cat. #8547), anti-pBTK (Y223, Cat. #5082), anti-ITK (Cat. #2380), anti-GAPDH (Cat. #5179), anti-IKZF1 (Cat. #9034), and anti-IKZF3 (Cat. #15103) antibodies purchased from Cell Signaling Technology.” left out

SMILES: C=CC(=O)N1CCC[C@@H](n2nc(-c3ccc(Oc4ccccc4)cc3)c3c(N)ncnc32)C1 [ibrutinib, reference compound]
- remaining binding at 1 µM (TEC): 1.9%
- remaining binding at 1 µM (JAK3): < 10%
- remaining binding at 1 µM (BLK): 0.1%
- remaining binding at 1 µM (ITK): < 10%
- remaining binding at 1 µM (MKK7): < 10%

SMILES: Nc1ncnc2c1c(-c1ccc(Oc3ccccc3)cc1)nn2C1CCNCC1 [compound 1, 3-(4-phenoxyphenyl)-1-(piperidin-4-yl)-1H-pyrazolo[3,4-d]pyrimidin-4-amine hydrochloride, reference compound]
- inhibition potency against C481S mutant BTK (C481S BTK): retained inhibition potency

SMILES: Cc1ncsc1-c1ccc(CNC(=O)[C@@H]2C[C@@H](O)CN2C(=O)[C@@H](NC(=O)CCCCCOCCOCCOCCCCCCN2CCC(n3nc(-c4ccc(Oc5ccccc5)cc4)c4c(N)ncnc43)CC2)C(C)(C)C)cc1 [Compound 116, (2S,4R)-1-((S)-23-(4-(4-amino-3-(4-phenoxyphenyl)-1H-pyrazolo[3,4-d]pyrimidin-1-yl)piperidin-1-yl)-2,2-dimethyl-5-oxo-11,14,17-trioxa-4-azatricosanecarbonyl)-4-hydroxy-N-(4-(4-methylthiazol-5-yl)benzyl)pyrrolidine-2-carboxamide]
- HER3 Degradation (HER3): No
- DC50 (BTK): No Degradation

SMILES: C=CC(=O)Nc1cc(-c2nn(C3CCN(CCCCOCCCCOCC(=O)Nc4cccc5c4C(=O)N(C4CCC(=O)NC4=O)C5=O)CC3)c3ncnc(N)c23)ccc1Oc1ccccc1 (stereo not drawn) [Compound 122, N-(5-(4-amino-1-(1-(4-(4-(2-(2-(2,6-dioxopiperidin-3-yl)-1,3-dioxoisoindolin-4-ylamino)-2-oxoethoxy)butoxy)butyl)piperidin-4-yl)-1H-pyrazolo[3,4-d]pyrimidin-3-yl)-2-phenoxyphenyl)acrylamide]
- HER3 Degradation (HER3): No
- DC50 (BTK): No Degradation

SMILES: Cc1ncsc1-c1ccc(CNC(=O)[C@@H]2C[C@@H](O)CN2C(=O)[C@@H](NC(=O)COCCOCCOCCOCCCCN2CCC(n3nc(-c4ccc(Oc5ccccc5)cc4)c4c(N)ncnc43)CC2)C(C)(C)C)cc1 [Compound 113, (2S,4R)-1-((S)-19-(4-(4-amino-3-(4-phenoxyphenyl)-1H-pyrazolo[3,4-d]pyrimidin-1-yl)piperidin-1-yl)-2-tert-butyl-4-oxo-6,9,12,15-tetraoxa-3-azanonadecane)-4-hydroxy-N-(4-(4-methylthiazol-5-yl)benzyl)pyrrolidine-2-carboxamide]
- HER3 Degradation (HER3): No
- DC50 (BTK; read-out: DC50): 124 nM
- Max (BTK; at 1.0 μM): 60%

SMILES: Nc1ncnc2c1c(-c1ccc(Oc3ccccc3)cc1)nn2C1CCN(CCCCOCCCCOCC(=O)Nc2cccc3c2C(=O)N(C2CCC(=O)NC2=O)C3=O)CC1 (stereo not drawn) [Compound 106, 2-[4-[4-[4-[4-amino-3-(4-phenoxyphenyl)pyrazolo[3,4-d]pyrimidin-1-yl]-1-piperidyl]butoxy]butoxy]-N-[2-(2,6-dioxo-3-piperidyl)-1,3-dioxo-isoindolin-4-yl]acetamide]
- HER3 Degradation (HER3): No
- degradation of BTK at 1.0 μM (BTK; 1.0 μM): nearly complete degradation
- DC50 (BTK; read-out: DC50): 90.1 nM
- Max (BTK; at 1.0 μM): 93%

SMILES: Nc1ncnc2c1c(-c1ccc(Oc3ccccc3)cc1)nn2C1CCN(CCCCOCCCCOCC(=O)Nc2ccc3c(c2)C(=O)N(C2CCC(=O)NC2=O)C3=O)CC1 (stereo not drawn) [Compound 105, 2-[4-[4-[4-[4-amino-3-(4-phenoxyphenyl)pyrazolo[3,4-d]pyrimidin-1-yl]-1-piperidyl]butoxy]butoxy]-N-[2-(2,6-dioxo-3-piperidyl)-1,3-dioxo-isoindolin-5-yl]acetamide]
- HER3 Degradation (HER3): No
- DC50 (BTK; read-out: DC50): 11.6 nM
- Max (BTK; at 250 nM): >99%
- hook-effect (increase in BTK levels at high PROTAC concentration) (BTK; up to 2.5 μM, 24 h): (No

Reference: patent US11028088B2, “Modulators of BTK proteolysis and methods of use” (Yale University, priority 2018, dated 2021)
